{"source": "patent US9320759B2", "about": "“Methods and compositions for treating, reducing or preventing deterioration of the visual system of animals” (Nestec S.A, priority 2011, dated 2016)", "key": {"[1]": {"test_system": "brain lesion (infarcted area) after middle cerebral artery occlusion", "test": "TTC staining, brain lesion volume after transient middle cerebral artery occlusion", "type": "in vivo, rat", "conditions": "OVX female rats, 4 weeks diet (E2 1 week), 1 hour MCA occlusion, 24 hours reperfusion", "description": "Young adult (2 to 3 months old) female Charles River rats were ovariectomized (OVX) and fed one of 5 compositions for 4 weeks or treated with estradiol (E2) as a positive control for one week. The animal groups and respective compositions were: At the end of the 4 weeks of feeding (or 1 week of E2 treatment), the animals were subjected to a transient (1 hour) middle cerebral artery occlusion followed by reperfusion for 24 hours to mimic one of the main causes of neuron loss. […] Photographs were taken with a digital camera. The digital images of each brain section were used to calculate lesion volume for the infracted area of the brain."}, "[2]": {"test_system": "TUNEL-positive cells in the ischemic boundary cortex", "test": "TUNEL staining and cell death quantification after transient middle cerebral artery occlusion", "type": "in vivo, rat", "conditions": "OVX female rats, 4 weeks diet (E2 1 week), 1 hour MCA occlusion, 24 hours reperfusion", "experimental": "Young adult (2 to 3 months old) female Charles River rats were ovariectomized (OVX) and fed one of 5 compositions for 4 weeks or treated with estradiol (E2) as a positive control for one week. The animal groups and respective compositions were: At the end of the 4 weeks of feeding (or 1 week of E2 treatment), the animals were subjected to a transient (1 hour) middle cerebral artery occlusion followed by reperfusion for 24 hours to mimic one of the main causes of neuron loss. Then, the animals were euthanized for determination of brain lesion volume and subsequent terminal deoxynucleotidyl transferase dUTP nick end labeling (TUNEL) staining to evaluate apoptosis in and around brain lesions. TUNEL staining was conducted on the same tissue used for assessment of lesion volume in Example 2. Brain slices were post-fixed in 4% formalin for later sectioning for subsequent staining for TUNEL positive neurons. DNA fragmentation was detected by a TUNEL method using a Dead END fluorescent kit (Promega, Madison, Wis.) according to the manufacturer's instruction. […] Within these boundaries, optical dissectors were systematically randomly sampled and the number of positive cells, together with DAPI labeled nuclear counter-stain in each optical section is counted. […] The data were expressed as the percentage of DAPI nuclear counter-stained cells."}}, "data": [{"compound": "C[C@]12CC[C@@H]3c4ccc(O)cc4CC[C@H]3[C@@H]1CC[C@@H]2O", "note": "[17β-Estradiol]", "values": [{"measurement": "Lesion Volume Value", "setting": "[1]", "value": 147.41}, {"measurement": "TUNEL Staining Value (TUNEL-positive cells normalized to the total number of cells by DAPI stain)", "setting": "[2]", "value": "37.69 percentage of DAPI nuclear counter-stained cells"}]}]}
